# Results: PubChem BioAssay AID624258 (Broad Institute, 2012)
# Calls of active or inactive are those of the source. The rule behind the calls is not given here.
# Test system: S. cerevisiae SKN7-toxicity growth rescue, plate reader
# Experiment: Yeast SKN7 toxicity growth rescue counterscreen, Saccharomyces cerevisiae, plate reader, dose confirmatory (AID 624258);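 note: growth read after three days of incubation at 30 °C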
row,SMILES,AC40
1,Cc1cccc(N2CCN(C(=O)C3CCCCC3)CC2)c1C,19.3 µM
2,CC(C)(C)c1ccc(Cn2ccc(-c3ccc4c(c3)OCO4)n2)cc1,8.82 µM
3,Cc1ccccc1OCc1nc2ccccc2n1C,7.54 µM
4,O=C(NCCN1CCN(c2cccc(Cl)c2)CC1)c1ccc(CSc2nc3ccncc3[nH]2)cc1,8.35 µM
5,COc1cc(OC)cc(N2C(=O)CC(N3CCC(C(=O)N4CCCCC4)CC3)C2=O)c1 (stereo not given),13.7 µM
6,O=NN(CCc1ccncc1)c1ccc(OCc2ccccc2)cc1,2.98 µM
7,O=c1c2cc(Cl)ccc2oc2nc3n(c(=O)c12)CCCS3,19.1 µM
8,O=C1Cc2ccccc2C(=O)N1CCc1ccccc1,10.5 µM
9,CCCOc1ccc(N2C(=O)CC(N3CCC(C(=O)OCC)CC3)C2=O)cc1 (stereo not given),6.17 µM
10,Cc1ccc(NC2=C(NC(=O)c3ccccc3)C(=O)c3ccccc3C2=O)cc1Cl,4.15 µM
11,Cc1cc(Cl)ccc1OCC(=O)NCCCCc1ccccc1,8.43 µM
12,Cc1ccc(S(=O)(=O)N2[C@@H](c3ccc(Cl)cc3)C(C(=O)O)=CC[C@H]2c2ccc(Cl)c(Cl)c2)cc1,3.31 µM
13,O=c1[nH][nH]cc1C=Nc1ccccc1O,2.18 µM
14,Cc1ccc(CN2CC(C(=O)N(Cc3nnc(-c4ccccc4Cl)o3)C3CC3)CC2=O)cc1 (stereo not given),8.15 µM
15,CSC1=NC(=O)/C(=C/c2ccc(SC)cc2)S1,2.61 µM
16,Cc1cccc(N2C(=O)C(Oc3ccc(Cl)cc3Cl)C2C=O)c1C (stereo not given),1.98 µM
17,COc1cc(C(=O)ON=C2C3CC4CC(C3)CC2C4)cc(OC)c1OC,1.79 µM
18,O=C(NCC1CC1(Cl)Cl)Nc1ccc(Cl)c(Cl)c1 (stereo not given),> 6.8 µM (inactive)
19,Cc1cc(C(=O)N/N=C/c2cc(Br)cc([N+](=O)[O-])c2O)c2ccccc2n1,1.27 µM
20,CC(C)(C)C(=O)C(Oc1ccc(Cl)cc1)n1cncn1 (stereo not given),2.02 µM
21,Cc1cccc(N2CCN(C(=O)c3c(-c4ccccc4)noc3C)CC2)c1C,0.414 µM
22,Cc1cc([N+](=O)[O-])c(NC2CCCCC2)c([N+](=O)[O-])c1,10.1 µM
23,O=[N+]([O-])c1ccc(O)c(/C=N/Nc2ccccn2)c1,1.42 µM
24,O=[N+]([O-])c1cc(C(F)(F)F)ccc1NCCc1c[nH]c2ccc(O)cc12,1.11 µM
25,Oc1ccccc1-c1nnc(SCCN2CCOCC2)n1Cc1ccccc1,9.94 µM

row,SMILES,AC40
1,COc1cc2c(cc1OC)C(C)N(C(=O)c1cc3c(=O)oc4ccc(C)cc4c3s1)CC2 (stereo not given),> 19.5 µM (inactive)
2,CCCC1CCC(c2ccc(/C(N)=N/O)cc2)CC1 (stereo not given),0.476 µM
3,Oc1cc(Nc2ccccc2)cc2cccnc12,3.81 µM
4,CCc1ccccc1OCC(=O)Nc1nc(-c2cccnc2)cs1,1.23 µM
5,Cc1ccccc1OCC(O)Cn1c2ccccc2c2ccccc21 (stereo not given),3.61 µM
6,Oc1ccc(-c2nc3ccccc3s2)c(O)c1,0.726 µM
7,CC1=CC(=O)C(C(C)C)=C/C1=N/OC(=O)c1cccc([N+](=O)[O-])c1,1.05 µM
8,O=C(Nc1cccc(-c2nc3ccccc3s2)c1)c1cccs1,1.34 µM
9,Cc1ccc(C(=O)Sc2cccccc2=O)cc1,0.322 µM
10,CC1CCCCC1NC(=O)/C(C#N)=C/c1ccccc1F (stereo not given),2.04 µM
11,O=C(/C=C/c1ccccc1)c1cc(Br)ccc(=O)c1O,2.08 µM
12,C=CS(=O)(=O)c1sc(Cl)c(N2CCOCC2)c1[N+](=O)[O-],0.653 µM
13,CCOC(=O)c1cccc2c1-c1ccccc1/C2=N/O,1.91 µM
14,Oc1c(C(Nc2cccc(C(F)(F)F)c2)c2cccnc2)ccc2cccnc12 (stereo not given),2.73 µM
15,O=c1nc(N/N=C/c2ccccn2)cn[nH]1,4.69 µM
16,O=C(COC(=O)c1ccc([N+](=O)[O-])o1)NCc1ccc(F)cc1,6.69 µM
17,O=C(O)c1ccc(C(=O)c2cc([N+](=O)[O-])cc([N+](=O)[O-])c2)cc1,15.7 µM
18,COc1cc(OC)c(-c2c3cc(O)c(=O)cc-3oc3cc(O)c(O)cc23)cc1OC,1.57 µM
19,C/C(=N\NC(=S)NC1CCCCC1)c1c(F)cccc1F,3.39 µM
20,Cc1cc(C)c(C(N)=O)c(Nc2cccc3ccccc23)n1,> 19.5 µM (inactive)
21,O=C(Nc1ccccc1N1CCOCC1)c1cc2c(s1)CCCCC2,7.06 µM
22,Cc1ccc(C(C)(C)C)cc1S(=O)(=O)Nc1ncnc2sccc12,1.15 µM
23,O=C(NNC(=O)c1cc(Cl)ccc1O)c1cccc(S(=O)(=O)N2CCOCC2)c1,3.31 µM
24,O=C(N/N=C/c1sc(N2CCOCC2)nc1-c1ccccc1)c1ccccc1O,3.04 µM
25,O=C(CSc1ccc(-c2ccccn2)nn1)N1CCc2ccccc21,10.2 µM
